Measurements as given in US5691348A, “Pyridyl imidazole derivatives and processes for the preparation thereof” (Daewoo Electronics Co., Ltd., priority 1994, dated 1997).
Each block holds one compound with its values, some of them ahead of it.

Key:
unanesthetized dogs [1] = experiment: Maximum blood pressure lowering effect in unanesthetized dogs at different amounts; format: in vivo, dog
Procedure: (§1) A number of dog was fed freely in a feeding room and those weighing 7 to 12 kg in good health were selected regardless of their gender.
(§2) The test dog was anesthetized with 30 mg/kg of pentobarbital sodium by intravenous injection and the left femoral artery and femoral vein were separated carefully. Silicone catheter, specially prepared and filled with saline treated with heparin (1,000 IU/ml), was cannulated into the blood vessels. After the surgery, the dog was constrained to measure the blood pressure continuously with Gould 2000 physiograph adapted to a Grass P23XL pressure transducer; and the heart rate was monitored with ECG/Biotacho amplifier. The dog was tested at least 2 days after the surgery.
(§3) 10 mg/kg of furosemide was injected intramuscularly 18 hours (in case of intravenous injection, 2 hours) before the beginning of the test (administration of the test compound) to improve the activity of renin in blood plasma. After the injection of furosemide, neither food nor water was provided. The test compound was suspended in Tween 80 and administered in an amount of 20 mg/kg orally. The blood pressure and heart rate were measured up to 8 hours after the administration of each test compound.
The maximum blood pressure lowering effect of the present compounds and the control compounds were determined in different amounts of administration using the same method as (i) and the results are given in Table 4.

angiotensin II receptor = experiment: Angiotensin II receptor binding assay ([3H] angiotensin II); design: species or system rat (Sprague-Dawley adrenal cortex/medulla; Wistar liver); settings: 25° C., 60 minutes, test concentration not given
Procedure: 1. Angiotensin II receptor binding assay
In accordance with the procedure disclosed in Chiu, A. T. et al., Eur. J. Pharm., 157, 13(1981), a ligand marked with a radioisotope was reacted with an angiotensin II receptor and the reactant was filtered with a glass fiber to remove unreacted ligand. After washing the filter, the amount of the remaining isotope was measured to determine the binding activity of the ligand, as described below in detail.
Sprague-Dawley rats and Wistar rats of 250 to 350 g (from The Korea Research Institute of Chemical Technology) were tested and the test procedures were carried out at 4° C., unless otherwise specified. Adrenal gland was separated from the Sprague-Dawley rats (liver, in the case of Wistar rats) into cortex and medulla. The separated adrenal cortex and medulla were washed with a sucrose buffer solution (0.2M sucrose, 1 mM EDTA, 10 mM Tris, Ph 7.2) and homogenized in the same buffer solution by using a Teflon pestle and a Brinkmann homogenizer. The homogenates were centrifuged at 3,000× g for 10 minutes to remove precipitates and further centrifuged at 12,000× g for 13 minutes. The final supernatants were centrifuged at 102,000× g for 1 hour to obtain precipitates, which were washed with a Tris buffer solution (50 mM Tris, 5 mM MgCl2, pH 7.2) and recentrifuged at 102,000× g for 1 hour. The resulting precipitates were immediately processed at the following step or stored at -70° C.
The precipitates were suspended in a Tris buffer solution. The amount of protein was determined by using a Bio-Rad DC protein analyzing kit and the protein concentration was adjusted to the amounts of: 0.2 to 0.3 mg/ml (Sprague-Dawley rat: adrenal cortex), 1.5 to 2.0 mg/ml (Sprague-Dawley rat: adrenal medulla), and 1.5 to 2.0 mg/ml (Wistar rat: liver). To the suspension, bovine serum albumin(BSA) was added to a concentration of 0.25 wt % and the resultant was immediately processed at the following step or stored at -70° C.
50 μl (based on ligand) of [^3 H] angiotensin II (NEN, NET-446) and 10 μl of each of the test compounds with various concentrations were added to the buffer solution (50 mM Tris (pH 7.2), 5 mM MgCl2, 0.25% BSA) to adjust the final volume to be 0.5 ml. 100 μl of the receptor suspension was added thereto and the resulting solution was reacted for 60 minutes while stirring in a water bath at 25° C. 3 ml of cold buffer solution for analysis was added to cease the reaction. The isotope which was bound to the receptor was isolated from the resultant by using Brandel Cell Harvester System with Whatman glass fiber GF/C. After washing the filter, the radioactivity of the filter was determined by using a liquid scintillation counter. Binding inhibition(%) of the test compound was calculated as follows:
Binding Inhibition(%)=[{(T-B)-(S-B)}/(T-B)]×100
wherein T is the radioactivity (cpm) of the reaction product untreated with the test compound, S is the radioactivity (cpm) of the reaction product treated with the test compound, and B is the radioactivity (cpm) of blank test.

renal hypertensive rat [2] = experiment: Blood pressure lowering effect in renal hypertension; format: in vivo, Sprague-Dawley rat; settings: intravenous or oral (not specified)
From the text: (§4) To induce renal hypertension, left renal artery of 4 week-old male Sprague-Dawley rat (from The Korea Research Institute of Chemical Technology) was ligated. The rat was anesthetized with ether and the surgical region on the left abdomen of the rat was shaved, disinfected, and then incised about 1 cm vertically. The renal artery near abdominal aorta was isolated carefully from surrounding tissues and veins, and then ligated completely with a suture (4/0 sterile surgical silk). The muscular strata and skin of the surgical area were sutured with a suture (4/0 sterile surgical silk). The surgical region was disinfected to prevent infection and thereafter, 200 to 250 mg/kg/day of cephazolin sodium was injected intramuscularly for 2 days. 6 to 8 days after the ligation, rats showing systolic pressure of more than 180 mmHg were selected for renal hypertension test. The blood pressure was determined by a tail-cuff method from the tail under unanesthetized condition (Gerold, M. et al., Arzneimittel-Forsch., 18, 1285(1968)).
(§5) Each of the compounds to be tested was administered intravenously or orally into the renal hypertensive rat. The blood pressure of the rat was determined by direct method (Chiu, A. T. et al., J. Pharmacol. Exp. Ther., 250, 867(1989)) using a catheter. The rat was anesthetized with ketamine hydrochloride (125 mg/kg, i.p.) and a catheter was filled with saline and inserted into a carotid artery and […]. The surgical area was sutured with a metal clip. The rat was relaxed at least 3 hours and the catheter in the carotid artery was adapted to an isotec pressure transducer to determine the blood pressure and heart rate with a physiograph (Linearcorder WR3310). After the blood pressure was stabilized, the test compound was administered intravenously or orally. For intravenous administration, the administered volume and washing volume were 1.0 ml/kg and 0.2 ml, respectively. The blood pressure and heart rate were measured in regular intervals up to 24 hours after the administration of the test compound and compared with those measured after the administration of the control compound Losartan.
(§6) The test compound was dissolved in 0.05N KOH for intravenous administration and suspended in Tween 80 for oral administration.

unanesthetized dogs [3] = experiment: Blood pressure variation with time in unanesthetized dogs; format: in vivo, dog; settings: for Maximum Blood Pressure Lowering Effect: 3 mg, oral
Procedure: as §1, §2
as §3, with “The test compound was suspended in Tween 80 and administered in an amount of 20 mg/kg orally.” left out

renal hypertensive rat [4] = experiment: Blood pressure lowering effect with respect to dose (renal hypertensive rats); format: in vivo, Sprague-Dawley rat; settings: oral
From the text: as §4, §5, §6
The present compounds, Losartan(Dup 753) and the Merck compound were administrated orally to rats in 10, 3 and 1 mg/kg under the same condition as in (ii) and the blood pressure lowering effect was determined.

- Binding Inhibition (angiotensin II receptor): 94.6%
SMILES: CCCCc1nc2cc(-c3ccc[n+]([O-])c3)c(C)nc2n1Cc1ccc(-c2ccccc2-c2nn[nH]n2)cc1 [Example 6, 2-Butyl-5-methyl-6-(1-oxy-pyridin-3-yl)-3-[2'-(1H-tetrazol-5-yl)-biphenyl-4-ylmethyl]-3H-imidazo[4,5-b]pyridine]
- Maximum Blood Pressure Lowering Effect (unanesthetized dogs [1]; 0.3 mg/kg): -9%
- Maximum Blood Pressure Lowering Effect (unanesthetized dogs [1]; 1 mg/kg): -12%
- Maximum Blood Pressure Lowering Effect (renal hypertensive rat [2]; Amount 3 mg): -38%

- Binding Inhibition (angiotensin II receptor): 60.3%
SMILES: CCCCc1nc2cc(-c3cccc[n+]3[O-])c(C(=O)N(CC)CC)nc2n1Cc1ccc(-c2ccccc2-c2nn[nH]n2)cc1 [Example 5, 2-Butyl-6-(1-oxy-pyridin-2-yl)-3-[2'-(1H-tetrazol-5-yl)-biphenyl-4-ylmethyl]-3H-imidazo[4,5-b]pyridin-5-carboxylate Diethylamide]

- Binding Inhibition (angiotensin II receptor): 96.9%
SMILES: CCCCc1nc2cc(-c3cc[n+]([O-])cc3)c(CO)nc2n1Cc1ccc(-c2ccccc2-c2nn[nH]n2)cc1 [Example 2, 2-Butyl-5-hyroxymethyl-6-(1-oxy-pyridin-4-yl)-3-[2'-(1H-tetrazol-5-yl)-biphenyl-4-ylmethyl]-3H-imidazo[4,5-b]pyridine]

- Binding Inhibition (angiotensin II receptor): 95.5%
SMILES: CCCCc1nc2cc(-c3cc[n+]([O-])cc3)c(C)nc2n1Cc1ccc(-c2ccccc2-c2nn[nH]n2)cc1 [Example 7, 2-Butyl-5-methyl-6-(1-oxy-pyridin-4-yl)-3-[2'-(1H-tetrazol-5-yl)-biphenyl-4-ylmethyl]-3H-imidazo[4,5-b]pyridine]

- Binding Inhibition (angiotensin II receptor): 92.1%
SMILES: CCCCc1nc2cc(-c3cccc[n+]3[O-])c(C(=O)OC)nc2n1Cc1ccc(-c2ccccc2-c2nn[nH]n2)cc1 [Example 4, 2-Butyl-5-methoxycarbonyl-6-(1-oxy-pyridin-2-yl)-3-[2'-(1H-tetrazol-5-yl)-biphenyl-4-ylmethyl]-3H-imidazo[4,5-b]pyridine]

- Binding Inhibition (angiotensin II receptor): 48.0%
SMILES: CCCCc1nc(Cl)c(CO)n1Cc1ccc(-c2ccccc2-c2nn[nH]n2)cc1 [Losartan (Dup 753), Losartan, reference compound]
- Maximum Blood Pressure Lowering Effect (unanesthetized dogs [3]; 0.5 hr): -11.0%
- Maximum Blood Pressure Lowering Effect (unanesthetized dogs [3]; 1 hr): -12.3%
- Maximum Blood Pressure Lowering Effect (unanesthetized dogs [3]; 2 hr): -12.8%
- Maximum Blood Pressure Lowering Effect (unanesthetized dogs [3]; 4 hr): -9.9%
- Maximum Blood Pressure Lowering Effect (unanesthetized dogs [3]; 6 hr): -10.1%
- Maximum Blood Pressure Lowering Effect (unanesthetized dogs [3]; 8 hr): -8.2%
- time for which the maximum blood pressure lowering effect lasted after the administration (unanesthetized dogs [3]; Table 3, present compounds 1.0 mg, control compound 3 mg): up to 2 hours
- Maximum Blood Pressure Lowering Effect (unanesthetized dogs [1]; 3 mg/kg): -13%
- Maximum Blood Pressure Lowering Effect (unanesthetized dogs [1]; 10 mg/kg): -23%
- Maximum Blood Pressure Lowering Effect (renal hypertensive rat [4]; 3 mg/kg): -30%
- Maximum Blood Pressure Lowering Effect (renal hypertensive rat [4]; 10 mg/kg): -46%
- Maximum Blood Pressure Lowering Effect (renal hypertensive rat [2]; Amount 10 mg): -27%
